Test results reported in ChEMBL document CHEMBL1148087, “Structure and absolute configuration of palmonine F, a new eunicellin-based diterpene from the gorgonian Eunicella verrucosa” (1994).
≈ marks a conversion by molar mass, not a printed value.

How the values were obtained:
Format in all cases: functional
Details in all cases: read-out: ED50 (the source's name)
P388 = experiment: Cytotoxicity against mouse P388 cells
A549 = experiment: Cytotoxicity against human A549 cells
HT-29 = experiment: Cytotoxicity against human HT-29 cells
SK-MEL-28 = experiment: Cytotoxicity against human SK-MEL-28 cells

Structure (SMILES) | EC50 (P388) | EC50 (A549) | EC50 (HT-29) | EC50 (SK-MEL-28)
C=C1C[C@H]2O[C@H]([C@H]3[C@@H]2[C@](C)(OC(C)=O)CC[C@@H]3C(C)C)[C@](C)(OC(C)=O)CC[C@@H]1O [PALMONINE F] | > 10 µg/mL | > 10 µg/mL | > 10 µg/mL | > 10 µg/mL
C=C1C[C@H]2O[C@H]([C@H]3[C@@H]2[C@](C)(OC(C)=O)CC[C@@H]3C(C)C)[C@](C)(OC(C)=O)CC[C@@H]1OC(C)=O [PALMONINE B] | 5 µg/mL (≈ 10.8 µM) | – | – | 5 µg/mL (≈ 10.8 µM)
CO[C@H]1CC[C@@](C)(OC(C)=O)[C@@H]2O[C@H](C[C@]1(C)O)[C@@H]1[C@H]2[C@@H](C(C)C)CC[C@@]1(C)OC(C)=O [PALMONINE A] | > 10 µg/mL | > 10 µg/mL | > 10 µg/mL | > 10 µg/mL
CO[C@H]1CC[C@@](C)(OC(C)=O)[C@@H]2O[C@H](C[C@]1(C)O)[C@@H]1[C@H]2[C@@H](C(C)C)CC[C@@]1(C)O [PALMONINE C] | > 10 µg/mL | > 10 µg/mL | > 10 µg/mL | > 10 µg/mL
C=C1C[C@H]2O[C@H]([C@H]3[C@@H]2[C@](C)(OC(C)=O)CC[C@@H]3C(C)C)[C@](C)(OC(C)=O)CCC1=O [PALMONINE D] | > 10 µg/mL | > 10 µg/mL | > 10 µg/mL | > 10 µg/mL
CC(=O)O[C@]1(C)CC[C@H](C(C)C)[C@@H]2[C@H]1[C@H]1/C=C(/C)C(=O)CC[C@@](C)(OC(C)=O)[C@@H]2O1 [PALMONINE E] | > 10 µg/mL | > 10 µg/mL | > 10 µg/mL | > 10 µg/mL
